Experimental data from patent US20120083522A1, “MODULATION OF INFLAMMATORY RESPONSES BY FACTOR XI” (Isis Pharmaceuitcals, inc., priority 2009, published 2012).
In the oligonucleotide strings, read from the 5' end, every base follows the letter of its sugar. An asterisk marks phosphorothioate; unmarked linkages are phosphodiester. Other units and linkages are bracketed, terminal groups are in braces. A string of capitals states the bases alone. e = 2'-O-(2-methoxyethyl) (MOE); [5mC] = 5-methylcytosine; d = 2'-deoxy (DNA)

Key:
human Factor XI mRNA [1] = assay: Dose-dependent antisense inhibition in HepG2 cells, lipofectin (Example 2); assay type: cell-based; conditions: approximately 16 hours
Description: Cells were plated at a density of 10,000 cells per well and transfected using lipofectin reagent with 9.375 nM, 18.75 nM, 37.5 nM, 75 nM, and 150 nM concentrations of antisense oligonucleotide, as specified in Table 3. After a treatment period of approximately 16 hours, RNA was isolated from the cells and Factor XI mRNA levels were measured by quantitative real-time PCR. Human Factor XI primer probe set RTS 2966 (forward sequence: […], incorporated herein as SEQ ID NO: 3; reverse sequence: […], incorporated herein as SEQ ID NO: 4; probe sequence: TTGTCTACTGAAGCACACCCAAACAGGGAX, wherein X is the fluorophore, incorporated herein as SEQ ID NO: 5) was used to measure mRNA levels. Factor XI mRNA levels were adjusted according to total RNA content, as measured by RIBOGREEN®. Results are presented as percent inhibition of Factor XI, relative to untreated control cells.

human Factor XI mRNA [2] = assay: Dose-dependent inhibition in HepG2 cells, lipofectin (Example 4); assay type: cell-based; conditions: 16 hours
Method in brief: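 Read-out was percent inhibition of Factor XI mRNA relative to untreated controls, by qRT-PCR (RTS 2966) adjusted for RIBOGREEN-measured total RNA. Cells received antisense oligonucleotide at 9.375 to 75 nM (four levels) via lipofectin. Treatment lasted approximately 16 hours, with plating at 10,000 cells per well.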

human Factor XI mRNA [3] = assay: Dose-dependent inhibition in HepG2 cells, electroporation (Example 4); assay type: cell-based; conditions: 16 hours
Method in brief: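 HepG2 cells electroporated with 0.7, 2.2, 6.7 or 20 μM antisense gapmer and harvested after ~16 h. Factor XI mRNA quantified by qRT-PCR (primer probe set RTS 2966), normalised to total RNA (RIBOGREEN). Reported as percent inhibition versus untreated control cells.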

human Factor XI mRNA [4] = assay: Antisense inhibition in HepG2 cells by microwalk gapmers, 75 nM, lipofectin (Example 3); assay type: cell-based; conditions: HepG2 cells, 75 nM
Method in brief: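 HepG2 cells (10,000 per well) were transfected with 75 nM gapmer using lipofectin and treated for about 24 h. Factor XI mRNA was quantified by real-time PCR, normalized to RiboGreen total RNA and expressed as percent inhibition versus untreated controls.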

human Factor XI mRNA [5] = assay: Antisense inhibition in HepG2 cells by microwalk gapmers, 8,000 nM, electroporation (Example 14); assay type: cell-based; conditions: HepG2 cells, 8,000 nM
Method in brief: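 Percent reduction of Factor XI transcript, relative to untreated controls, by real-time PCR with RIBOGREEN normalisation. Readout taken about 24 h after electroporating HepG2 cells with 8,000 nM oligonucleotide. Gapmers are 5-10-5, 5-8-5 or 6-8-6 MOE wings, phosphorothioate backbone.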

[6] = Tolerability in Sprague-Dawley rats: hematology assays (Example 23); assay type: in vivo; design: RBC / WBC / Neutrophil / Lymphocyte / Platelets: unit not given here; conditions: blood
[7] = Tolerability in CD1 mice: body and organ weight (Example 25); assay type: in vivo; conditions: 50 mg/kg s.c. twice per week for 6 weeks; for Kidney weight as percentage of body weight / Liver weight as percentage of body weight / Spleen weight as percentage of body weight: end of study

Substance	percent inhibition of Factor XI (human Factor XI mRNA [1]; 9.375 nM) [%]	percent inhibition of Factor XI (human Factor XI mRNA [1]; 18.75 nM) [%]	percent inhibition of Factor XI (human Factor XI mRNA [1]; 37.5 nM) [%]	percent inhibition of Factor XI (human Factor XI mRNA [1]; 75 nM) [%]	percent inhibition of Factor XI (human Factor XI mRNA [1]; 150 nM) [%]	RBC [6]	WBC [6]	other results
412203 (antisense eA*eA*eT*eG*eT*d[5mC]*dT*dT*dT*dG*dT*dT*dG*d[5mC]*dA*eA*eG*e[5mC]*eG*e[5mC]) [compound 412203]	29	15	61	77	82	–	–	percent inhibition of Factor XI mRNA, relative to untreated control cells (human Factor XI mRNA [2]; 9.375 nM): 33%; percent inhibition of Factor XI mRNA, relative to untreated control cells (human Factor XI mRNA [2]; 18.75 nM): 40%; percent inhibition of Factor XI mRNA, relative to untreated control cells (human Factor XI mRNA [2]; 37.5 nM): 62%; percent inhibition of Factor XI mRNA, relative to untreated control cells (human Factor XI mRNA [2]; 75 nM): 74%; percent inhibition of Factor XI mRNA, relative to untreated control cells (human Factor XI mRNA [3]; 0.7 μM): 11%; percent inhibition of Factor XI mRNA, relative to untreated control cells (human Factor XI mRNA [3]; 2.2 μM): 60%; percent inhibition of Factor XI mRNA, relative to untreated control cells (human Factor XI mRNA [3]; 6.7 μM): 70%; percent inhibition of Factor XI mRNA, relative to untreated control cells (human Factor XI mRNA [3]; 20 μM): 91%
412206 (antisense e[5mC]*e[5mC]*eG*eT*eG*d[5mC]*dA*dT*d[5mC]*dT*dT*dT*d[5mC]*dT*dT*eG*eG*e[5mC]*eA*eT) [compound 412206]	28	44	68	80	89	–	–	% inhibition of human Factor XI mRNA levels (human Factor XI mRNA [4]; oligonucleotides targeted to nucleobases 738 to 762 of SEQ ID NO: 1): 93%; percent inhibition of Factor XI mRNA, relative to untreated control cells (human Factor XI mRNA [2]; 9.375 nM): 24%; percent inhibition of Factor XI mRNA, relative to untreated control cells (human Factor XI mRNA [2]; 18.75 nM): 47%; percent inhibition of Factor XI mRNA, relative to untreated control cells (human Factor XI mRNA [2]; 37.5 nM): 69%; percent inhibition of Factor XI mRNA, relative to untreated control cells (human Factor XI mRNA [2]; 75 nM): 86%; percent inhibition of Factor XI mRNA, relative to untreated control cells (human Factor XI mRNA [3]; 0.7 μM): 22%; percent inhibition of Factor XI mRNA, relative to untreated control cells (human Factor XI mRNA [3]; 2.2 μM): 39%; percent inhibition of Factor XI mRNA, relative to untreated control cells (human Factor XI mRNA [3]; 6.7 μM): 81%; percent inhibition of Factor XI mRNA, relative to untreated control cells (human Factor XI mRNA [3]; 20 μM): 94%; Percent inhibition of human Factor XI mRNA levels (human Factor XI mRNA [5]): 91%
412212 (antisense e[5mC]*e[5mC]*eG*eG*eG*dA*dT*dG*dA*dT*dG*dA*dG*dT*dG*e[5mC]*eA*eG*eA*eT) [compound 412212]	28	45	59	73	88	–	–	% inhibition of human Factor XI mRNA levels (human Factor XI mRNA [4]; oligonucleotides targeted to nucleobases 1018 to 1042 of SEQ ID NO: 1): 89%
413467 (antisense eG*eG*eT*e[5mC]*e[5mC]*dA*d[5mC]*dA*dT*dA*dA*dA*dT*dG*dT*e[5mC]*eT*eT*eT*eG) [compound 413467]	2	35	49	61	47	–	–	percent inhibition of Factor XI mRNA, relative to untreated control cells (human Factor XI mRNA [2]; 9.375 nM): 35%; percent inhibition of Factor XI mRNA, relative to untreated control cells (human Factor XI mRNA [2]; 18.75 nM): 51%; percent inhibition of Factor XI mRNA, relative to untreated control cells (human Factor XI mRNA [2]; 37.5 nM): 62%; percent inhibition of Factor XI mRNA, relative to untreated control cells (human Factor XI mRNA [2]; 75 nM): 69%; percent inhibition of Factor XI mRNA, relative to untreated control cells (human Factor XI mRNA [3]; 0.7 μM): 5%; percent inhibition of Factor XI mRNA, relative to untreated control cells (human Factor XI mRNA [3]; 2.2 μM): 31%; percent inhibition of Factor XI mRNA, relative to untreated control cells (human Factor XI mRNA [3]; 6.7 μM): 65%; percent inhibition of Factor XI mRNA, relative to untreated control cells (human Factor XI mRNA [3]; 20 μM): 89%
413468 (antisense eG*eT*e[5mC]*eT*eA*dG*dG*dT*d[5mC]*d[5mC]*dA*d[5mC]*dA*dT*dA*eA*eA*eT*eG*eT) [compound 413468]	14	34	56	78	75	–	–	–
413469 (antisense eT*eG*e[5mC]*e[5mC]*e[5mC]*dT*dT*d[5mC]*dA*dT*dG*dT*d[5mC]*dT*dA*eG*eG*eT*e[5mC]*e[5mC]) [compound 413469]	24	33	53	70	84	–	–	–
413476 (antisense eT*eT*eG*eA*eG*dA*dT*dT*d[5mC]*dT*dT*dT*dG*dG*dG*e[5mC]*e[5mC]*eA*eT*eT) [compound 413476]	26	44	64	73	82	–	–	% inhibition of human Factor XI mRNA levels (human Factor XI mRNA [4]; oligonucleotides targeted to nucleobases 1062 to 1091 of SEQ ID NO: 1): 93%; percent inhibition of Factor XI mRNA, relative to untreated control cells (human Factor XI mRNA [2]; 9.375 nM): 24%; percent inhibition of Factor XI mRNA, relative to untreated control cells (human Factor XI mRNA [2]; 18.75 nM): 58%; percent inhibition of Factor XI mRNA, relative to untreated control cells (human Factor XI mRNA [2]; 37.5 nM): 62%; percent inhibition of Factor XI mRNA, relative to untreated control cells (human Factor XI mRNA [2]; 75 nM): 77%; percent inhibition of Factor XI mRNA, relative to untreated control cells (human Factor XI mRNA [3]; 0.7 μM): 40%; percent inhibition of Factor XI mRNA, relative to untreated control cells (human Factor XI mRNA [3]; 2.2 μM): 69%; percent inhibition of Factor XI mRNA, relative to untreated control cells (human Factor XI mRNA [3]; 6.7 μM): 88%; percent inhibition of Factor XI mRNA, relative to untreated control cells (human Factor XI mRNA [3]; 20 μM): 93%
ISIS 416848: gapmer of Table 8 (antisense e[5mC]*eA*e[5mC]*eA*eG*dT*dT*dT*d[5mC]*dT*dG*dG*d[5mC]*dA*dG*eG*e[5mC]*e[5mC]*eT*e[5mC])	–	–	–	–	–	6.0	17	–
ISIS 416851: gapmer of Table 8 (antisense eG*eT*eG*e[5mC]*eA*d[5mC]*dA*dG*dT*dT*dT*d[5mC]*dT*dG*dG*e[5mC]*eA*eG*eG*e[5mC])	–	–	–	–	–	7.4	11	–
ISIS 416852: gapmer of Table 8 (antisense eT*eG*eG*eT*eG*d[5mC]*dA*d[5mC]*dA*dG*dT*dT*dT*d[5mC]*dT*eG*eG*e[5mC]*eA*eG)	–	–	–	–	–	7.2	13	–
ISIS 416859: gapmer of Table 8 (antisense eG*eA*e[5mC]*eG*eG*d[5mC]*dA*dT*dT*dG*dG*dT*dG*d[5mC]*dA*e[5mC]*eA*eG*eT*eT)	–	–	–	–	–	7.8	16	–
ISIS 416860: gapmer of Table 8 (antisense e[5mC]*eG*eG*eA*e[5mC]*dG*dG*d[5mC]*dA*dT*dT*dG*dG*dT*dG*e[5mC]*eA*e[5mC]*eA*eG)	–	–	–	–	–	7.8	17	–
ISIS 416861: gapmer of Table 8 (antisense eG*e[5mC]*eG*eG*eA*d[5mC]*dG*dG*d[5mC]*dA*dT*dT*dG*dG*dT*eG*e[5mC]*eA*e[5mC]*eA)	–	–	–	–	–	7.7	15	–
ISIS 416863: gapmer of Table 8 (antisense e[5mC]*eA*eG*e[5mC]*eG*dG*dA*d[5mC]*dG*dG*d[5mC]*dA*dT*dT*dG*eG*eT*eG*e[5mC]*eA)	–	–	–	–	–	7.6	17	–
ISIS 416866: gapmer of Table 8 (antisense e[5mC]*eT*eG*eG*e[5mC]*dA*dG*d[5mC]*dG*dG*dA*d[5mC]*dG*dG*d[5mC]*eA*eT*eT*eG*eG)	–	–	–	–	–	7.8	20	–
ISIS 416867: gapmer of Table 8 (antisense eA*e[5mC]*eT*eG*eG*d[5mC]*dA*dG*d[5mC]*dG*dG*dA*d[5mC]*dG*dG*e[5mC]*eA*eT*eT*eG)	–	–	–	–	–	7.8	14	–
ISIS 445498: microwalk gapmer of Table 51 (antisense eG*eG*eT*eG*e[5mC]*eA*d[5mC]*dA*dG*dT*dT*dT*d[5mC]*dT*eG*eG*e[5mC]*eA*eG*eG)	–	–	–	–	–	–	–	Body weight (increase over PBS control weight before start of treatment) [7]: 10 g; Kidney weight as percentage of body weight [7]: 1.6%; Liver weight as percentage of body weight [7]: 6%; Spleen weight as percentage of body weight [7]: 0.5%
ISIS 445504: microwalk gapmer of Table 51 (antisense eG*eG*e[5mC]*eA*eT*eT*dG*dG*dT*dG*d[5mC]*dA*d[5mC]*dA*eG*eT*eT*eT*e[5mC]*eT)	–	–	–	–	–	–	–	Body weight (increase over PBS control weight before start of treatment) [7]: 11 g; Kidney weight as percentage of body weight [7]: 1.6%; Liver weight as percentage of body weight [7]: 6%; Spleen weight as percentage of body weight [7]: 0.4%
ISIS 445505: microwalk gapmer of Table 51 (antisense e[5mC]*eG*eG*e[5mC]*eA*eT*dT*dG*dG*dT*dG*d[5mC]*dA*d[5mC]*eA*eG*eT*eT*eT*e[5mC])	–	–	–	–	–	–	–	Body weight (increase over PBS control weight before start of treatment) [7]: 12 g; Kidney weight as percentage of body weight [7]: 1.5%; Liver weight as percentage of body weight [7]: 6%; Spleen weight as percentage of body weight [7]: 0.5%
